What follows are molecules tested on male C57BL/6 mice (assay: 55° C. warm-water tail-flick test (antinociception)). Conditions: Mus musculus, sc, 0.5 h, compounds of Table I; s.c.; 30 min; 55° C. water; configuration tested as in Table II; read-out: ED50 (mg/kg) at 30 min on C57BL/6 mice in Warm-water Tail-flick Test.
Format: in vivo
Outline: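 Mice with baseline tail-flick latency within 2 s at 55° C received compound s.c. and were retested at 30, 60, 90 and 120 min. % antinociception = 100×(test−control latency)/(20−control latency); ED50 in mg/kg.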

Question: `Cc1ccc(C(C)(C)N2CCC(CCc3ccc(F)s3)(c3ncc(C(C)(C)C)[nH]3)C2)cn1` (single isomer, unassigned) [Compound 282] was tested. Which ED50 did it give?
Answer: The ED50 was ≤ 30 mg/kg.

Question: For `Cc1ccc(C(C)(C)N2CCC(CCc3ccc(F)s3)(CNS(C)(=O)=O)C2)cn1` (single isomer, unassigned) [Compound 313], which ED50 is on record?
Answer: The ED50 was ≤ 30 mg/kg.

Question: For `Cc1ccc(C(C)(C)N2CCC(CCc3ccc(F)s3)(C(NS(C)(=O)=O)c3ccccn3)C2)cn1` (single isomer, unassigned) [Compound 319], which ED50 is on record?
Answer: Its ED50 is ≤ 30 mg/kg.

Question: With `Cc1ccc(C(C)(C)N2CCC(CCc3ccc(F)s3)(CNS(=O)(=O)C(C)C)C2)cn1` (single isomer, unassigned) [Compound 320] as the molecule, how does the ED50 read?
Answer: The ED50 was ≤ 30 mg/kg.

Question: For `Cc1ccc(S(=O)(=O)NC(c2ccccn2)C2(CCc3ccc(F)s3)CCN(C(C)(C)c3ccc(C)nc3)C2)cc1` (single isomer, unassigned) [Compound 321], which ED50 is on record?
Answer: The ED50 was ≤ 30 mg/kg.

Question: How did the ED50 turn out when `Cc1ccc(C(C)(C)N2CCC(CCc3ccc(F)s3)(CNS(=O)(=O)O)C2)cn1` (single isomer, unassigned) [Compound 322] was run?
Answer: The ED50 was ≤ 30 mg/kg.

Question: `CCOCC1(CCc2ccc(F)cc2)CCN(Cc2ccccc2)C1` (stereo in doubt) [Compound 4, (S)-1-benzyl-3-(ethoxymethyl)-3-(4-fluorophenethyl) pyrrolidine] was tested. Which ED50 did it give?
Answer: The ED50 was ≤ 30 mg/kg.

Question: `CCOC(C(F)(F)F)(C(F)(F)F)[C@]1(CCc2ccc(F)cc2)CCN(Cc2ccc(C)nc2)C1` [Compound 13, (R)-5-((3-(2-ethoxy-1,1,1,3,3,3-hexafluoropropan-2-yl)-3-(4-fluorophenethyl)pyrrolidin-1-yl)methyl)-2-methylpyridine] was tested. Which ED50 did it give?
Answer: Its ED50 is ≤ 30 mg/kg.

Same assay, conditions: Mus musculus, sc, 0.5 h, compounds of Table III; s.c.; 30 min; 55° C. water; configuration tested as in Table IV; read-out: ED50 (mg/kg) at 30 min on C57BL/6 mice in Warm-water Tail-flick Test (same as Table II)

Question: Which ED50 does the source give for `CCOCC1(CCc2ccc(F)cc2)CCN(Cc2ccccc2)C1` (stereo in doubt) [Compound 4, (S)-1-benzyl-3-(ethoxymethyl)-3-(4-fluorophenethyl) pyrrolidine] here?
Answer: Its ED50 is > 50 mg/kg.

Question: Which ED50 does the source give for `CCOC[C@]1(CCc2ccccc2)CCN(C(C)(C)c2ccc(Br)cc2)C1` [Compound 5] here?
Answer: Its ED50 is ≤ 30 mg/kg.

Same assay, conditions: Mus musculus, sc, 0.5 h, compounds of Table V; s.c.; 30 min; 55° C. water; read-out: ED50 (mg/kg) at 30 min on C57BL/6 mice in Warm-water Tail-flick Test (same conditions as Table II)

Question: Which ED50 does the source give for `CCOCC1(CCc2ccc(F)cc2)CCN(Cc2ccccc2)C1` (stereo in doubt) [Compound 4, (S)-1-benzyl-3-(ethoxymethyl)-3-(4-fluorophenethyl) pyrrolidine] here?
Answer: The ED50 was ≤ 30 mg/kg.

Question: For `CCOCC1(CCc2ccccc2)CCN(C(C)(C)c2ccc(-c3cn[nH]n3)cc2)CC1` [Compound 5], which ED50 is on record?
Answer: The ED50 was ≤ 30 mg/kg.

Question: Which ED50 does the source give for `CCOC(C(F)(F)F)(C(F)(F)F)[C@]1(CCc2ccc(F)cc2)CCN(Cc2ccc(C)nc2)C1` [Compound 13, (R)-5-((3-(2-ethoxy-1,1,1,3,3,3-hexafluoropropan-2-yl)-3-(4-fluorophenethyl)pyrrolidin-1-yl)methyl)-2-methylpyridine] here?
Answer: The ED50 was > 50 mg/kg.

Same assay, conditions: Mus musculus; half maximal effective dose in mice; using one of: warm water tail-flick test, spared nerve injury, chronic constriction injury, or Complete Freund's adjuvant induced inflammatory pain (not stated which per compound); read-out: Biological Activity (ED50)

Question: Which ED50 does the source give for `CC(O)[C@]1(CCc2ccc(C#N)cc2)CCN(C(C)(C)c2ccc(C(F)(F)F)nc2)C1` (single isomer, unassigned) [Compound 214, 4-(2-((R)-3-((R or S)-1-hydroxyethyl)-1-(2-(6-(trifluoromethyl)pyridin-3-yl)propan-2-yl)pyrrolidin-3-yl)ethyl) benzonitrile] here?
Answer: Its ED50 is ≤ 30 mg/kg.

Question: For `CC(O)[C@]1(CCc2ccc(F)cc2)CCN(C(C)(C)c2ccccn2)C1` (single isomer, unassigned) [Compound 216, (R or S)-1-((R)-3-(4-fluorophenethyl)-1-(2-(pyridin-2-yl)propan-2-yl)pyrrolidin-3-yl)ethan-1-ol], which ED50 is on record?
Answer: Its ED50 is > 50 mg/kg.

Question: `CC(C)(c1ccccn1)N1CC[C@](/C=C/c2ccc(S(C)(=O)=O)cc2)(C2CCCO2)C1` (single isomer, unassigned) [Compound 218, 2-(2-((R)-3-((E)-4-(methylsulfonyl)styryl)-3-((R or S)-tetrahydrofuran-2-yl)pyrrolidin-1-yl)propan-2-yl)pyridine] was tested. Which ED50 did it give?
Answer: The ED50 was > 50 mg/kg.

Question: For `CC(O)[C@]1(CCc2ccc(S(C)(=O)=O)cc2)CCN(C(C)(C)c2ccc(Cl)cc2)C1` (single isomer, unassigned) [Compound 219, (R or S)-1-((R)-1-(2-(4-chlorophenyl)propan-2-yl)-3-(4-(methylsulfonyl)phenethyl)pyrrolidin-3-yl)ethan-1-ol], which ED50 is on record?
Answer: Its ED50 is > 50 mg/kg.

Question: With `CC(C)(c1ccc(Cl)cc1)N1CC[C@@](CCc2ccc(S(C)(=O)=O)cc2)(C(O)C(F)(F)F)C1` (single isomer, unassigned) [Compound 222, (R or S)-1-((R)-1-(2-(4-chlorophenyl)propan-2-yl)-3-(4-(methylsulfonyl)phenethyl)pyrrolidin-3-yl)-2,2,2-trifluoroethan-1-ol] as the molecule, how does the ED50 read?
Answer: The ED50 was > 50 mg/kg.

Question: With `CC(C)(c1ccccn1)N1CC[C@](CCc2ccc(C#N)cc2)(C(O)C(F)(F)F)C1` (single isomer, unassigned) [Compound 223] as the molecule, how does the ED50 read?
Answer: Its ED50 is > 50 mg/kg.

Question: With `Cc1ccnc(C)c1CN1CC[C@@](CCc2ccc(C#N)cc2)(C(O)C(F)(F)F)C1` (single isomer, unassigned) [Compound 227, 4-(2-((R)-1-((2,4-dimethylpyridin-3-yl)methyl)-3-((R or S)-2,2,2-trifluoro-1-hydroxyethyl)pyrrolidin-3-yl)ethyl) benzonitrile] as the molecule, how does the ED50 read?
Answer: Its ED50 is > 50 mg/kg.

Question: Which ED50 does the source give for `CC(C)(c1ccc(F)cn1)N1CC[C@](CCc2ccc(C#N)cc2)(C(O)C(F)(F)F)C1` (single isomer, unassigned) [Compound 229, 4-(2-((S)-1-(2-(5-fluoropyridin-2-yl)propan-2-yl)-3-((R or S)-2,2,2-trifluoro-1-hydroxyethyl)pyrrolidin-3-yl)ethyl) benzonitrile] here?
Answer: The ED50 was > 50 mg/kg.

Question: With `CCOCC1(CCc2ccc(F)cc2)CCN(Cc2ccccc2)C1` (stereo in doubt) [Compound 4, (S)-1-benzyl-3-(ethoxymethyl)-3-(4-fluorophenethyl) pyrrolidine] as the molecule, how does the ED50 read?
Answer: The ED50 was > 50 mg/kg.

Question: How did the ED50 turn out when `CC(C)(c1ccccn1)N1CC[C@@](CCc2ccc(C#N)cc2)(C(C)(C)O)C1` [(R)-4-(2-(3-(2-hydroxypropan-2-yl)-1-(2-(pyridin-2-yl)propan-2-yl)pyrrolidin-3-yl)ethyl) benzonitrile] was run?
Answer: Its ED50 is > 50 mg/kg.

Question: Which ED50 does the source give for `CCOC[C@]1(CCc2ccc(F)cc2)CCN(Cc2ccc(OC)nc2)C1` [Compound 1, (R)-5-((3-(ethoxymethyl)-3-(4-fluorophenethyl)pyrrolidin-1-yl)methyl)-2-methoxypyridine] here?
Answer: Its ED50 is > 50 mg/kg.

Question: Which ED50 does the source give for `CCOC[C@]1(CCc2ccc(F)cc2)CCN(Cc2cnc(OC)cc2C#N)C1` [Compound 2, (R)-5-((3-(ethoxymethyl)-3-(4-fluorophenethyl)pyrrolidin-1-yl)methyl)-2-methoxy-isonicotino nitrile] here?
Answer: Its ED50 is ≤ 30 mg/kg.

Question: Which ED50 does the source give for `CCOC[C@]1(CCc2ccc(C#N)cc2)CCN(Cc2cccnc2)C1` [Compound 3, (R)-4-(2-(3-(ethoxymethyl)-1-(pyridin-3-ylmethyl)pyrrolidin-3-yl)ethyl) benzonitrile] here?
Answer: The ED50 was ≤ 30 mg/kg.

Question: For `CCOC[C@]1(CCc2ccc(F)cc2)CCN(Cc2cccnc2C(N)=O)C1` [Compound 5], which ED50 is on record?
Answer: The ED50 was > 50 mg/kg.

Question: Which ED50 does the source give for `CCOC(C(F)(F)F)(C(F)(F)F)[C@]1(CCc2ccc(C#N)cc2)CCN(C(C)(C)c2ccc(C)nc2)C1` [Compound 6, (R)-4-(2-(3-(2-ethoxy-1,1,1,3,3,3-hexafluoropropan-2-yl)-1-(2-(6-methylpyridin-3-yl)propan-2-yl)pyrrolidin-3-yl)ethyl) benzonitrile] here?
Answer: The ED50 was ≤ 30 mg/kg.

Question: `CCOC(C(F)(F)F)(C(F)(F)F)[C@]1(CCc2ccc(C)cc2)CCN(C(C)(C)c2ccc(C)nc2)C1` [Compound 7, (R)-5-(2-(3-(2-ethoxy-1,1,1,3,3,3-hexafluoropropan-2-yl)-3-(4-methylphenethyl)pyrrolidin-1-yl)propan-2-yl)-2-methylpyridine] was tested. Which ED50 did it give?
Answer: The ED50 was > 50 mg/kg.

Question: With `CCOC(C(F)(F)F)(C(F)(F)F)[C@]1(CCc2ccc(C#N)cc2)CCN(Cc2ccc(C)nc2)C1` [Compound 8, (R)-4-(2-(3-(2-ethoxy-1,1,1,3,3,3-hexafluoropropan-2-yl)-1-((6-methylpyridin-3-yl)methyl)pyrrolidin-3-yl)ethyl) benzonitrile] as the molecule, how does the ED50 read?
Answer: The ED50 was > 50 mg/kg.

Question: Which ED50 does the source give for `CCOC(C(F)(F)F)(C(F)(F)F)[C@]1(CCc2ccc(C#N)cc2)CCN(Cc2cccnc2)C1` [Compound 9, (R)-4-(2-(3-(2-ethoxy-1,1,1,3,3,3-hexafluoropropan-2-yl)-1-(pyridin-3-ylmethyl)pyrrolidin-3-yl)ethyl) benzonitrile] here?
Answer: The ED50 was > 50 mg/kg.

Question: With `CCOC[C@]1(CCc2ccc(C#N)cc2)CCN(C(c2cccnc2)c2cccnc2)C1` [Compound 10, (R)-4-(2-(1-(di(pyridin-3-yl)methyl)-3-(ethoxymethyl)pyrrolidin-3-yl)ethyl) benzonitrile] as the molecule, how does the ED50 read?
Answer: The ED50 was > 50 mg/kg.

Question: `CCOC(C(F)(F)F)(C(F)(F)F)[C@]1(CCc2ccc(F)cc2)CCN(Cc2ccc(C)nc2)C1` [Compound 13, (R)-5-((3-(2-ethoxy-1,1,1,3,3,3-hexafluoropropan-2-yl)-3-(4-fluorophenethyl)pyrrolidin-1-yl)methyl)-2-methylpyridine] was tested. Which ED50 did it give?
Answer: The ED50 was > 50 mg/kg.

Reference: patent US20240383882A1 (Ecstasy LLC, priority 2020, published 2024)
